Test results as given in patent publication US11999794B2, “Human mesothelin chimeric antigen receptors and uses thereof” (Novartis AG, priority 2013, dated 2024).

Key:
[1] = Questionnaires on energy and exercise one year after dosing; format: in vivo, human; settings: 0.5 mg daily cohort
[2] = molecular target: T1, hMSLN296-588 (Homo sapiens, UniProt Q13421, N388Q/N488Q/N515Q); assay: Hydrogen-deuterium exchange mass spectrometry epitope mapping; format: binding; settings: amino acid position 297 to 464
T1 construct: secretion signal […]; made in house; host or cells: Expi293 (alone, or co-expressed with scFv M5)
T1 sequence (Q13421 with tags, fused parts or gaps N388Q/N488Q/N515Q): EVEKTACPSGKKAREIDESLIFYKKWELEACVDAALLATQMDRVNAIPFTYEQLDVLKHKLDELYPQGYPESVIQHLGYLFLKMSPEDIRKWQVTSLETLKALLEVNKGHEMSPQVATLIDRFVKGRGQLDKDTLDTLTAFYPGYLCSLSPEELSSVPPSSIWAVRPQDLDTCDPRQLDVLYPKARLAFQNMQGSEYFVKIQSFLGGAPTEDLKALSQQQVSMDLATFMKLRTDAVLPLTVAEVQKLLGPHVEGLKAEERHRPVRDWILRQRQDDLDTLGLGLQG
From the text: Hydrogen-deuterium exchange (HDx) in combination with mass spectrometry (MS) (Woods V L, Hamuro Y (2001) High Resolution, High-Throughput Amide Deuterium Exchange-Mass Spectrometry (DXMS) Determination of Protein Binding Site Structure and Dynamics: Utility in Pharmaceutical Design. J. Cell. Biochem. Supp.; 84(37): 89-98.) was used to map the putative binding site of scFv antibodies M5 and SS1 on human mesothelin(296-588), referred to herein as hMSLN296-588 (SEQ ID No 278). In HDx, exchangeable amide hydrogens of proteins are replaced by deuterium. This process is sensitive to protein structure/dynamics and solvent accessibility and, therefore, able to report on locations that undergo a decrease in deuterium uptake upon ligand binding.
HDx/MS experiments were performed using methods similar to those described in the literature (Chalmers M J, Busby S A, Pascal B D, He Y, Hendrickson C L, Marshall A G, Griffin P R (2006) Probing protein ligand interactions by automated hydrogen/deuterium exchange mass spectrometry. Anal. Chem.; 78(4): 1005-1014.Chalmers, 2006). The experiments were performed on a Waters HDx/MS platform, which included a LEAP autosampler, nanoACQUITY UPLC, and Synapt G2 mass spectrometer. […]

Molecule	energy and exercise ability [1]	mesothelin peptides significantly protected from deuterium uptake [2]
CO[C@H]1C[C@@H]2CC[C@@H](C)[C@@](O)(O2)C(=O)C(=O)N2CCCC[C@H]2C(=O)O[C@H]([C@H](C)C[C@@H]2CC[C@@H](OCCO)[C@H](OC)C2)CC(=O)[C@H](C)/C=C(\C)[C@@H](O)[C@@H](OC)C(=O)[C@H](C)C[C@H](C)/C=C/C=C/C=C/1C [RAD001, (1R,9S,12S,15R,16E,18R,19R,21R,23 S,24E,26E,28E,30S,32S,35R)-1,18-dihydroxy-12-{(1R)-2-[(1 S,3R,4R)-4-(2-hydroxyethoxy)-3-methoxycyclohexyl]-1-methylethyl}-19,30-dimethoxy-15,17,21,23,29,35-hexamethyl-11,36-dioxa-4-aza-tricyclo[30.3.1.04,9]hexatriaconta-16,24,26,28-tetraene-2,3,10,14,20-pentaone]	increased energy and exercise ability as compared to placebo	–
M5: human anti-mesothelin scFv SEQ ID NO: 43; full CAR SEQ ID NO: 67 (protein) scFv: QVQLVQSGAEVEKPGASVKVSCKASGYTFTDYYMHWVRQAPGQGLEWMGWINPNSGGTNYAQKFQGRVTMTRDTSISTAYMELSRLRSDDTAVYYCASGWDFDYWGQGTLVTVSSGGGGSGGGGSGGGGSGGGGSDIVMTQSPSSLSASVGDRVTITCRASQSIRYYLSWYQQKPGKAPKLLIYTASILQNGVPSRFSGSGSGTDFTLTISSLQPEDFATYYCLQTYTTPDFGPGTKVEIK	–	no protection
